This is an account of results in patent publication US4203909A, “Furan compounds” (Bristol-Myers Company, priority 1978, dated 1980).

The target of series [1] is T1, histamine H2 -receptors (isolated guinea pig right atria) (Cavia porcellus, UniProt P47747).
T1 construct: The spontaneously beating right atrium was dissected free from other tissues; from tissue; host or cells: isolated spontaneously beating right atrium of male Hartley guinea pigs
Kind of series: Histamine H2-receptor antagonism, isolated guinea pig atria assay. The format is cell-based, guinea pig (male Hartley strain). Particulars: for Histamine ED50 With 95% Confidence Limits: histamine ED50 in presence of test compound 3 × 10^-5 M, 30 minute incubation; for Concentration-Response Curve Displacement Factor / Activity Ratio Relative to Cimetidine: test compound 3 × 10^-5 M; for Activity Ratio Relative to Cimetidine: cimetidine = 1.0. The protocol: Subsequent investigations by Hughes and Coret, Proc. Soc. […] Black et al., Agents and Actions, 3, 133 (1973) and Brimblecombe et al., Fed. […] The present comparative studies were carried out using a modification of the procedure reported by Reinhardt et al., Agents and Actions, 4, 217 (1974).
Male Hartley strain guinea pigs (350-450 gm.) were sacrificed by a blow on the head. The heart was excised and placed in a Petri dish of oxygenated (95% O2, 5% CO2) modified Krebs solution (g./liter: NaCl 6.6, KCl 0.35, MgSO4.7 H2 O 0.295, KH2 PO4 0.162, CaCl2 0.238, NaHCO3 2.1 and dextrose 2.09). The spontaneously beating right atrium was dissected free from other tissues and a silk thread (4-0) attached to each end. The atrium was suspended in a 20 ml. muscle chamber containing oxygenated modified Krebs solution maintained at 32° C. Atrial contractions were recorded isometrically by means of a Grass FT 0.03 force displacement transducer and recordings of contractile force and rate were made with a Beckman RP Dynograph.
A resting tension of 1 g. was applied to the atrium and it was allowed to equilibrate for 1 hour.
Concentration-response curve displacement factors were calculated as follows: [formula] […] [formula]

Series [2] relates to gastric acid output. Kind of series: Gastric antisecretory activity in the two hour pylorus ligated (Shay) rat. The format is in vivo, rat (male Long Evans). Particulars: for Percent Inhibition Acid Output / ED50: 2 h; for ED50: two hour pylorus ligated rat; for Potency Ratio: relative to cimetidine = 1.00. The text has this:
The pyloric ligation procedure in the rat was designed by Shay et al., Gastroenterology, 5, 53 (1945) for the study of perforating gastric ulcers; however, as the method became known, it was also employed as a means of studying rat gastric secretion, Shay et al., Gastroenterology, 26, 906 (1954), Brodie, D. A., Am. J. Dig. Dis., 11, 231 (1966). A modification of this procedure is presently used to evaluate compounds for gastric antisecretory activity.
Male Long Evans rats, 280-300 gm., are used. The aimals are placed in individual cages and fasted for 24 hours with free access to water. Under ther anesthesia, the stomach is reached through a midline incision, and a cotton-thread ligature is placed around the pylorus. […] All compounds are solubilized with one equivalent of HCl and brought to the proper volume with water. The animals are returned to their cages from which the water bottles have been removed and two hours later are sacrificed with ether. The stomach is removed and the two hour gastric collection is drained into a graduated test tube for volume determination. Titratable acidity is measured by titrating a one ml. sample to pH 7.0 with 0.02 N NaOH, using an Autoburet and an electrometric pH meter (Radiometer). Titratable acid output is calculated in microequivalents by multiplying the volume in milliliters by the acid concentration in milliequivalents per liter. The percent inhibition of acid output is calculated as follows [formula]

Series [3] has as its system gastric acid output. Nature of the series: Gastric antisecretory activity in the gastric fistula dog. The conditions noted are these: for Percent Inhibition Acid Output: histamine infusion. It counts as in vivo, beagle dogs. The protocol: Thomas type [Thomas, J. E., Proc. Soc. Exp. Biol. Med., 46, 260 ([…])] stainless steel cannulae are inserted into the stomachs of beagle dogs (10-12 kg.) just orad to the pyloric gland area near the greater curvature to provide a chronic gastric fistula. Animals are allowed to recover for at least two months before any testing is done. Dogs are fasted overnight (~18 hours) with water ad lib prior to each experiment. The dogs are placed in a sling and an eight inch inside needle catheter (C. R. Baird, Inc.) with a two inch 17 gauge needle is inserted into a leg vein for purposes of drug administration. Gastric secretions are collected every 15 minutes by gravity drainage from the opened cannula. […] A modification of the procedure described by Grossman and Konturek, Gastroenterology, 66, 517 (1974) was followed. […] Each 15 minute sample of gastric juice is measured to the nearest 0.5 ml. and titratable acidity against 0.02 N NaOH (endpoint pH 7.0) is measured with an Autoburet and pH meter (radiometer). The percent inhibition of acid output is calculated as described in the pylorus ligated rat procedure.

The test system of another series is gastric secretion. The conditions noted are these: cited from earlier work.
A further series relates to peptic ulcer disease. The conditions noted are these: clinical evaluation; cited from earlier work.
In the next series the test system is histamine H2 -receptors. The conditions noted are these: isolated guinea pig right atria; cited from earlier work.
A further series deals with H2 receptors. The conditions noted are these: cited from earlier work.
For series [4] the following is noted: clinical; cited from earlier work.

T1 sequence (P47747 whole entry): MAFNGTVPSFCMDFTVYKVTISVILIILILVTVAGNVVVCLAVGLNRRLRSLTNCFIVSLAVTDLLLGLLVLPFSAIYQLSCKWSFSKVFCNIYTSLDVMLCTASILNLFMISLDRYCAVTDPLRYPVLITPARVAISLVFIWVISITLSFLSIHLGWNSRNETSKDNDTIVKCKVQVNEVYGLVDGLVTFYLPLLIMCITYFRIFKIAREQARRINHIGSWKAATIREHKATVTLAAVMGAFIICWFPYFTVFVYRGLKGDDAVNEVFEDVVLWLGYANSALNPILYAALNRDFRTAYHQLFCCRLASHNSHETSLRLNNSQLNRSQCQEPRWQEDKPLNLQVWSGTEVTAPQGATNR

The term ED50 denotes the dose at which the effect has come halfway, by size or by number of responders. Low values mean greater potency, high ones weaker potency. With `C#CCNC(=C[N+](=O)[O-])NCCSCc1ccc(CN(C)C)o1` [BL-5966, 1-Nitro-2-(2-propynylamino)-2-{2-[(5-dimethylaminomethyl-2-furyl)methylthio]ethylamino}ethylene], the “Histamine ED50 With 95% Confidence Limits” value in series [1] worked out at 32.70 µg/mL. In addition, the “potency as histamine H2 receptor antagonist (in words)” value in series [1] (isolated guinea pig atria) is reported as “more potent than either cimetidine or Compound XVI”. Also, the “activity relative to Compound XVI” value in series [1] (isolated guinea pig right atria, vs Compound XVI) was “about 4.80 times”. The “Concentration-Response Curve Displacement Factor” value in series [1] came to 181.67. Moreover, the “Percent Inhibition Acid Output” value was found to be 27% in the series with gastric acid output [2] (0.625 μ Mole/kg ip); 36% with gastric acid output [2] (1.25 μ Mole/kg ip); 59% with gastric acid output [2] (2.5 μ Mole/kg ip); 83% in the series with gastric acid output [2] (5 μ Mole/kg ip); 32% with gastric acid output [3] (0.0469 μ Mole/kg iv); 47% in the series on gastric acid output [3] (0.0938 μ Mole/kg iv). Besides, the “Percent Inhibition Acid Output” value in the series on gastric acid output [3] (0.1875 μ Mole/kg iv) was determined as 46%; in the series on gastric acid output [3] (0.375 μ Mole/kg iv), 90%. In addition, the ED50 was determined as 1.8 µmol/kg with gastric acid output [2] (ip) and 0.12 µmol/kg in the series on gastric acid output [3] (Canis lupus familiaris, iv, gastric fistula dog). The “Potency Ratio” value in the series on gastric acid output [2] (ip) was found to be 5.81 times; with gastric acid output [3] (iv, relative to cimetidine = 1.0), 11.5 times. For the same compound, the “potency relative to Compound XVI” value with gastric acid output [2] (ip, vs Compound XVI) was 2.52 times. Further, the “potency as inhibitor of gastric secretion (in words)” value with gastric acid output [2] (rats) and with gastric acid output [3] (dogs) was “more potent than either cimetidine or Compound XVI” in each case.
Consider `C#CCNC(=NCCSCc1ccc(CN(C)C)o1)NC#N` [BL-5993, N-Cyano-N'-(2-propyn-1-yl)-N"-{2-[(5-dimethylaminomethyl-2-furyl)methylthio]ethyl}guanidine], for which, in series [1], the “Histamine ED50 With 95% Confidence Limits” value came out at 4.28 µg/mL, the “Concentration-Response Curve Displacement Factor” value stood at 23.78 and the “Activity Ratio Relative to Cimetidine” value is recorded as 0.94 times. The “Activity Ratio Relative to Cimetidine” value in series [1] (listed as BL-5933) is listed as “about 0.94 times”. In addition, the “Percent Inhibition Acid Output” value in the series with gastric acid output [2] (10 μ Mole/kg ip) was 34%. In addition, the “Percent Inhibition Acid Output” value in the series on gastric acid output [2] (20 μ Mole/kg ip) turned out to be 71%. In the series on gastric acid output [2] (ip), the ED50 was 12.5 µmol/kg and the “Potency Ratio” value stood at 0.83 times.
In the case of `CNC(=S)NCCCCc1cnc[nH]1` [Burimamide], in the series on gastric secretion (animals and man), the “inhibition of gastric secretion” value was “inhibits gastric secretion in animals and man”. The clinical effectiveness entry in the series with peptic ulcer disease was “first clinically effective H2 -receptor antagonist”. The “H2-receptor mediated effect in atria (in words)” value in the series on histamine H2 -receptors was “competitive antagonist of these receptors”.
Consider `CN=C(NC#N)NCCSCc1nc[nH]c1C` [Cimetidine], for which, in series [1], the “Histamine ED50 With 95% Confidence Limits” value was found to be 4.80 µg/mL and the “Concentration-Response Curve Displacement Factor” value is given as 25.26. For the same compound, the “H2 antagonist potency/effectiveness (in words)” value in the series on H2 receptors is reported as “as effective an H2 antagonist as metiamide”. In series [4], the “toxicity (agranulocytosis)” value was “without producing agranulocytosis”. Moreover, the clinical effectiveness result in the series with peptic ulcer disease is on record as “effective therapeutic agent in the treatment of peptic ulcer disease”.
In the case of `CNC(=C[N+](=O)[O-])NCCSCc1ccc(CN(C)C)o1` [Compound XVI, reference compound], the “Histamine ED50 With 95% Confidence Limits” value in series [1] came out at 11.97 µg/mL. In addition, the “Concentration-Response Curve Displacement Factor” value in series [1] came to 38.61. Also, the “Percent Inhibition Acid Output” value in the series on gastric acid output [2] (5 μ Mole/kg ip) is recorded as 42%; with gastric acid output [2] (10 μ Mole/kg ip) it was 77%; in the series with gastric acid output [2] (20 μ Mole/kg ip), 89%. In addition, the 50% effect level in the series with gastric acid output [2] (ip) (ED50) was put at a dose of 4.52 µmol/kg. Also, in the series on gastric acid output [2] (ip), the “Potency Ratio” value is 2.31 times.
For `NCCc1c[nH]cn1` [Histamine], the “H2-receptor mediated effect in atria (in words)” value with histamine H2 -receptors is on record as “concentration-related increases in the contractile rate”.
In the case of `CNC(=S)NCCSCc1nc[nH]c1C` [Metiamide], the oral activity result in the series on gastric secretion (man, oral) is recorded as “orally active in man”. Also, in the series on H2 receptors, the “H2 antagonist potency/effectiveness (in words)” value was “more potent than burimamide”. Further, the “toxicity (agranulocytosis)” value in series [4] was “toxicity (agranulocytosis)”.
